We go through 2 compounds from patent publication US20260199284A1, “SPECIFIC VASH COMPOUNDS (SVC) INHIBITORS FOR HEART DISEASES” (MT ACT, priority 2023, published 2026).

Series [1] deals with recombinant human VASH2 (Homo sapiens, UniProt Q86V25). In words: In vitro detyrosination assay with recombinant human VASH2. Format: biochemical. Conditions: increasing concentration. The procedure:
FIG. 32: In vitro detyrosination assays using recombinant human VASH1 and VASH2 enzymes in presence of increasing concentration of SVC_01.
Specificity of SVC-01 was assayed using both human VASH1 and VASH2 recombinant enzymes. […] Finally, to ensure that regulation of other genes involved in the detyrosination-tyrosination cycle is not affected, we analysed gene expression of all relevant and associated genes following treatment with SVC-02 in adult human cardiomyocytes. We found no alteration of VASH1, VASH2, MATCAP, TTL or SVBP gene expression between vehicle control and SVC-02 treated cells (FIG. 34).

The test system of series [2] is cardiomyocytes of obese ZSF1 rats. In words: Unloaded shortening contractility of HFpEF myocytes. Conditions: 30-weeks aged obese ZSF1 rats, 2-hours treatment. The series is classed as cell-based, rat. Here is the method: FIG. 16: Improved contraction and relaxation kinetics of HFpEF myocytes during unloaded shortening upon VASH inhibition or TTL overexpression in primary cardiomyocytes isolated from WKY, ZSF1-Lean, or ZSF1 Obese rats. A) Contraction amplitude, B) contraction time, and C) relaxation time in isolated rat cardiomyocytes. n=~90 myocytes per group from N=3 ZSF1 Lean or Obese rats; n=60 myocytes from N=2 WKY rats. Two-way ANOVA with factors of genotype and treatment.
(§1) Contractility was measured in a custom-fabricated cell chamber (IonOptix) mounted on an LSM Zeiss 880 inverted confocal microscope using either a 40 or 63× oil 1.4 numerical aperture objective and transmitted light camera (IonOptix MyoCam-S). Experiments were conducted at room temperature and field stimulation was provided at 1.0 Hz with a cell stimulator (MyoPacer, IonOptix). After 10-30 seconds of pacing to achieve steady state, five traces were recorded and analyzed. Sarcomere length was measured optically by Fourier transform analysis (IonWizard, IonOptix).

The test system of series [3] is mitochondrial activity. The series can be described thus: Seahorse Cell Mito Stress Test. Format: cell-based. The settings on record: 20 μM. The procedure:
FIG. 10: Mitochondrial activity assays using the Agilent Seahorse Cell Mito Stress Test kit in absence or presence of SVC_01 [20 μM]. This assay is the widely recognized, well-accepted standard assay for assessing energetic mitochondrial function. Multiple parameters are obtained in this one assay including, basal respiration, ATP-linked respiration, maximal and reserve capacities, and non-mitochondrial respiration. The assay provides insights into the mechanism of mitochondrial dysfunction and allow users to investigate functional differences among cell types, drug candidates, and genetic or biochemical interventions.
Next, we performed safety pharmacology experiments and head-to-head compared the cellular toxicity of SVCs on human cells. For our comparison we used microtubule binding agents including Parthenolide that previously was coined as an inhibitor of detyrosination (Fonrose et al., 2007). This compound was latter shown to disrupt microtubules by non-specific binding to tubulin in the molecular structure (Hotta T. et al., 2021). […] Mitochondrial health was assayed using the Seahorse equipment XF. […] No mitochondrial defects were measured at 20 micromolar concentration of our VASH inhibitor (FIG. 10). […]

The test system of series [4] is primary cardiomyocytes isolated from healthy Sprague Dawley rats. In words: Unloaded shortening contractility of healthy isolated cardiomyocytes. The series is classed as cell-based. The settings on record: healthy rat cardiomyocytes. The procedure:
FIG. 13: Dose-dependent modest improvement in contraction and relaxation kinetics during unloaded shortening upon VASH inhibition in primary cardiomyocytes isolated from healthy Sprague Dawley rats. A) Resting sarcomere length, B) fractional shortening, C) contraction time and D) relaxation time in healthy isolated rat cardiomyocytes. n=50-60 myocytes per group from N=3 Sprague Dawley rats. One-way ANOVA.
as §1

Series [5] deals with cardiomyocytes isolated from failing human hearts. In words: Human myocyte contractility. The series is classed as cell-based. The procedure:
Once excised, hearts were transported from the operating room to the laboratory in cold cardioplegia. The myocyte isolation was performed as previously described. An apical wedge was dissected from left ventricular free wall and a catheter was placed into the left anterior descending artery. The cannula was flushed with cold saline to evaluate perfusion of the wedge and tie any major vessels. The myocardium was then perfused with warm non-recirculating Krebs-Henseleit buffer (KHB) solution (12.5 mM glucose, 5.4 mM KCl, 1 mM lactic acid, 1.2 mM MgSO4, 130 mM NaCl, 1.2 mM NaH2PO4, 25 mM NaHCO3, 2 mM Na pyruvate, 20 mM BDM and 10 mM taurine, pH 7.4) for 10 minutes. Then, the myocardium was perfused with recirculated KHB and type II collagenase (294 units/mL) (Worthington Biochemical Corp., Lakewood, NJ, USA) for 5 minutes before calcium was slowly re-introduced to reach a final concentration of 1 mM. The collagenase and calcium supplemented KHB were recirculated for 25-30 minutes depending on the how the myocardium digested. The tissue was then removed from the cannula, rinsed in KHB with 1% bovine serum albumin (BSA) to stop the digestion, and then minced. The cell suspension was then filtered using 280-uM nylon mesh, centrifuged (25×g for 2 min), and resuspended in normal Tyrode's solution. Cells were treated with VASH inhibitor (VASHi) (1 mM) or vehicle (DMSO) before being placed in an incubator for 4 hours.
Contractility was assessed as previously described. After the 4-hour incubation with either VASHi or vehicle was complete, cardiomyocytes were transferred to 35 mm glass-bottom dishes. Contractility data was collected at 37 C. Cardiomyocytes were paced at 0.5 Hz using a myopacer (IonOptix MYP100) with custom fabricated carbon electrodes lowered into the glass bottom dish. Cells were paced for 10-15 seconds to reach steady state contractions and then data was recorded using high-speed video imaging with a Nikon PU-2000 inverted microscope with a 40× objective (IonWizard, IonOptix). A minimum of 5 contractions were recorded for Each myocyte and analyzed offline.
Cardiomyocytes were isolated from failing (N=4) and non-failing (N=3) human hearts, then treated with vehicle or VASHi (SVC-02) to evaluate bioactivity of the small molecule compound in primary human cardiomyocytes. Patient demographics are detailed in a table (FIG. 26). Compiled traces from all non-failing and failing patients are shown (FIG. 27).

Entries after “also recorded” stand apart in the source; their conditions may differ.

Sequence of recombinant human VASH2 (Q86V25 whole entry): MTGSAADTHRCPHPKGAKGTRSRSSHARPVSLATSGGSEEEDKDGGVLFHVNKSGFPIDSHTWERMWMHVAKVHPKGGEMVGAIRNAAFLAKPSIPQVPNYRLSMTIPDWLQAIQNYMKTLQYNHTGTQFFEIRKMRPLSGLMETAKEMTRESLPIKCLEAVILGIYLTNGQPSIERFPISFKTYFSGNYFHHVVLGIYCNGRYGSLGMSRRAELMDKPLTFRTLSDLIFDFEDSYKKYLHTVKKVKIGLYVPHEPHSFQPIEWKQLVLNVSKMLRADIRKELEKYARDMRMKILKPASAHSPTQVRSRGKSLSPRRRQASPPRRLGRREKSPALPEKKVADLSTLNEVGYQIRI

On to `O=C(O)CCC[C@H](NC(=O)[C@H]1O[C@@H]1C(=O)C[C@@H](Cc1ccc(OCc2ccccc2)cc1)C(=O)O)C(=O)NCCc1ccccc1` [SVC_01], for which the “inhibition of detyrosinating activity of recombinant human VASH2” value in series [1] is on record as “efficiently inhibited; also recorded: efficient in inhibiting”. Also, the “contraction and relaxation kinetics” value in series [2] was “Both contraction and relaxation kinetics were improved”. The mitochondrial activity result in series [3] is reported as “does not alter mitochondrial activity”. The “contraction and relaxation times” value in series [4] is “dose-dependent and statistically significant improvements”.

As for `CCOC(=O)[C@H](Cc1ccc(OCC)cc1)NC(=O)[C@H]1O[C@@H]1C(=O)N[C@@H](Cc1ccc(OCC)cc1)C(=O)OCC` [SVC_02], in series [5], the contraction velocity result is “did not significantly change”, the fractional shortening entry is “did not significantly change” and the resting sarcomere length entry was “did not significantly change”. Besides, the “time to 50% relaxation / relaxation” value in series [5] (4 hours incubation) was “improved; also recorded: shortened the time to 50% relaxation”.
